From US11896589B2, “Diazinyl amino acridines and medical uses thereof” (MyCural Therapeutics AB, priority 2018, dated 2024)

Columns and labels:
[1] = tested on: MYC null (H015.19) Rat1 fibroblast cells; assay: Assay 5B Tgr cell growth (WST-1), MYC null; format: cell-based, rat; conditions: 48 hours
Protocol: FIG. 6: A-B) Neuroblastoma cell lines with (SK-N-DZ, Kelly and IMR-32) or without (SK-N-F1, SK-N-RA and SK-N-AS) MYCN-amplification were exposed to different concentrations of Example 1, Example 2 and control compound, respectively, for 48 hours. Cell growth and viability was estimated by measuring metabolic activity. C) Growth of TGR-1 (wt), HO15.19 (MYC knockout) and HOmyc3 (MYC reconstituted HO15.19) Rat1 fibroblasts, as measured by the WST-1 assay after treatment with Example 1. Data are shown as mean±standard deviation of 3-5 biological experiments, each with 3 technical repeats.
Assay 5B: Tgr Cell Growth
Tgr cells were treated at 37° C. and 5% CO2 at 48 hours with Example and Example 2. H015.19 is a MYC null rat cell line derived from Tgr1 (parental cells), while H0Myc3 cells were generated from the MYC null cells by reconstitution of a MYC gene(Mateyak, M. K., Obaya, A. J., Adachi, S. & Sedivy, J. M. Phenotypes of c-Myc-deficient rat fibroblasts isolated by targeted homologous recombination. Cell Growth Differ 8, 1039-1048 (1997)).

[2] = target: T1, MAX:MAX (MAXbHLHZip) (Homo sapiens, UniProt P61244); assay: Assay 1A MST, labelled MAX pre-mixed with MAX instead of MYC; format: binding; conditions: 1 μM MAX instead of MYC
T1 construct: Recombinant MYC bHLHZip and MAX bHLHZip proteins were titrated
Protocol: FIG. 1: A) Microscale thermophoresis (MST) of fluorescently labeled MAX in a MYC:MAX heterodimer formation assay based on recombinant proteins. MST of labeled MAXbHLHZip after titration of Example 1 pre-incubated with 1 μM MYCbHLHZip, or with 1 μM MAXbHLHZip. Fluorescence intensity of labeled MAXbHLHZip relative DMSO was plotted against Example 1 concentration. B) Surface plasmon resonance (SPR) of MYC:MAX heterodimer formation assay. MAXbHLHZip was immobilized by an amino coupling procedure to a CM5 sensor chip. MYCbHLHZip pre-incubated with or without compound (as indicated) was injected over MAX for 180 seconds, allowed to dissociate for 240 seconds and regenerated. […] C) MYC binding response units (RU) plotted against Example 1 concentration from which an IC50 of Example 1 inhibition of MYC:MAX heterodimer formation is determined, summary of four experiments.
MST measures the movement of fluorescent labelled molecules in a microscopic temperature gradient. Changes in charge, size or of the hydration shell of the fluorescent molecule affects its migration in the temperature gradient, which can be detected by the fluorescence of the molecule (See Seidel et al., Microscale thermophoresis quantifies biomolecular interactions under previously challenging conditions, METHODS (2013)). […] Capillaries were scanned to measure initial fluorescence of compound. […]

[3] = tested on: human MYCN-amplified SK-N-DZ neuroblastoma xenograft tumors; assay: In vivo mouse xenograft tumor model; conditions: 20 mg/kg i.p. daily, 1-2 weeks
Protocol: SK-N-DZ MYCN-amplified neuroblastoma xenograft tumors reaching a volume of 100-200 mm^3 were treated with Example 1 (20 mg/kg body weight) or vehicle injected i.p. daily for 1-2 weeks. A) Apoptosis was determined by TUNEL staining of tumor tissues from mice treated with Example 1 or vehicle, counterstained with DAPI. Quantification of TUNEL staining was normalized to whole tumor areas as determined by DAPI from three Example 1- and three vehicle-treated mice. Student's t-test of Example 1 vs. vehicle; p=0.0083. B) Cell proliferation determined by Ki67 of tumor tissues from mice treated with Example 1 or vehicle, respectively, and counterstained with DAPI. Quantification of Ki67 negative areas normalized to whole tumor areas by DAPI from three Example 1- and three vehicle-treated mice. Student's t-test of Example 1 vs. vehicle; p=0.0380. C) Microvascular density visualized by CD31 staining in the red. C) Quantification of CD31 staining normalized to whole tumor areas from three Example 1- and three vehicle-treated mice. Student's t-test of Example 1 vs. vehicle; p=0.014. D) Detection of MYCN:MAX protein interaction by isPLA performed on tumor tissue from mice treated with Example 1 or vehicle using antibodies against MYCN and MAX. Quantification of MYCN:MAX isPLA signals in tumor tissue from Example 1- and vehicle-treated mice, presented as average number of dots from four randomly chosen microscopic fields from Example 1 treated mice normalized to corresponding values from vehicle-treated mice (F=28.102, P=0.008). E) Apoptosis determined from TUNEL stained tumor section derived from a MDA-MB231 xenograft mouse treated with Example 2 for 2 weeks. Quantification of apoptotic cells per counted field.
To validate the efficacy of Example 1 in tumor tissue in vivo, we utilized a mouse xenograft tumor model based on human MYCN-amplified SK-N-DZ neuroblastoma cells. Tumor cells (5×10^6) were injected into the flank of athymic nude mice and allowed to form tumors after which Example 1 or vehicle were administered by daily intraperitoneal injection at a dose of 20 mg/kg body weight for 1-2 weeks.

T1 sequence (P61244 22-102): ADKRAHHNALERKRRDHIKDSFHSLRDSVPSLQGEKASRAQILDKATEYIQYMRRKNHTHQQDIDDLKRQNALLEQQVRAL

With `CCOc1ccc2nc3cc(/N=N/c4ccc(N)nc4N)ccc3c(N)c2c1` [Example 1, 3-((9-amino-7-ethoxyacridin-3-yl)diazenyl)pyridine-2,6-diamine sulphate hydrate] the “growth of the MYC null cells” value [1] was “did not significantly affect”, the GI50 ([1]; Rattus norvegicus, Fibroblast, first run) was > 10 µM and the “effect on labelled MAX thermophoresis when pre-mixed with MAX” value [2] was “minor effects”. For the same molecule, the “CD31 Decrease in microvascular density” value [3] was 44 % of vehicle, the “Ki67 Increase in Ki67-negative tumor area relative to vehicle” value [3] was 550% and the “MYCN:MAX interactions in tumors (isPLA) vs vehicle” value [3] was “significant reduction”. For the same molecule, the “MYCN:MAX isPLA signal relative to vehicle” value [3] was 66 % of vehicle, the “TUNEL Increase in apoptotic tumor area relative to vehicle” value [3] was 1420% and the “apoptotic tumor areas (TUNEL) vs vehicle” value [3] was “dramatic increase”. For the same molecule, the “microvascular density (CD31) vs vehicle” value [3] was “significantly reduced” and the “non-proliferative areas (Ki67) vs vehicle” value [3] was “significant increase”.
